ChEMBL document CHEMBL4382222, “Structural development of non-secosteroidal vitamin D receptor (VDR) ligands without any asymmetric carbon” (Bioorg Med Chem, 2018)

Legend:
[1] = target: T1, Vitamin D3 receptor (Homo sapiens, UniProt P11473); assay: Agonist activity at human VDR expressed in HOS cells co-expressing human RXR by Dual-Glo luciferase reporter gene assay; assay type: cell-based
T1 sequence (P11473 whole entry): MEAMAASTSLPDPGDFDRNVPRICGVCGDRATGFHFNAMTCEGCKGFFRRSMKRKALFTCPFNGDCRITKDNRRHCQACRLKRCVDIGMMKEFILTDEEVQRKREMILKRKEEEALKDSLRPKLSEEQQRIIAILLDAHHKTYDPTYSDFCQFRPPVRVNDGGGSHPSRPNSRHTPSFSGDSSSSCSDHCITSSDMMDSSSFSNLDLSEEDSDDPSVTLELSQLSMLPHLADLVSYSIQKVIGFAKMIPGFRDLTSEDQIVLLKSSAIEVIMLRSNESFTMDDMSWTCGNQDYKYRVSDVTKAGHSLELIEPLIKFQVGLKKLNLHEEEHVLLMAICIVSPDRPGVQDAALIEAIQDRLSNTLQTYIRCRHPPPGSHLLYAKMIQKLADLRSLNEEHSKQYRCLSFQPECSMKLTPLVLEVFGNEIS

[2] = target: T2, Vitamin D3 receptor (Homo sapiens) (UniProt P11473); assay: Agonist activity at human VDR expressed in HOS cells co-expressing human RXR at 0.00001 to 10 uM by Dual-Glo luciferase reporter gene assay relative to 1alpha,25(OH)2D3; assay type: cell-based
T2 sequence (whole entry): T1 sequence (P11473 whole entry)

| Compound | EC50 [1] [nM] | Emax [2] [%] |
| --- | --- | --- |
| CCC(O)(CC)COc1ccc(C(CC)(CC)c2ccc(OC[C@@H](O)CO)c(C)c2)cc1C | 18 | 90 |
| CCC(CC)(c1ccc(OCCC(C)(C)O)c(C)c1)c1ccc(OC[C@@H](O)CO)c(C)c1 | 41.7 | 100 |
| CCC(O)(CC)COc1ccc(C(CC)(CC)c2ccc(OC(CO)CO)c(C)c2)cc1C | 17.2 | 100 |
| CCC(CC)(c1ccc(OC[C@@H](O)CO)c(C)c1)c1ccc(OCC(C)(C)O)c(C)c1 | 163 | 67 |
| CCC(CC)(c1ccc(OCC(CO)CO)c(C)c1)c1ccc(OCC(C)(C)O)c(C)c1 | 76.5 | 91 |
| CCC(CC)(c1ccc(OCCC(C)(C)O)c(C)c1)c1ccc(OCC(CO)CO)c(C)c1 | 76.9 | 91 |
| CCC(O)(CC)COc1ccc(C(CC)(CC)c2ccc(OCC(CO)CO)c(C)c2)cc1C | 9.26 | 100 |
